Experimental data published in US7659299B2, “Compounds inhibiting the binding of sap for treating osteoarthritis” (Pentraxin Therapeutics Limited, priority 2003, dated 2010).

Assays:
SAP [1] = molecular target: T1, SAP (Homo sapiens, UniProt P02743); experiment: Inhibition of binding of 125I radiolabelled SAP to native long chromatin immobilized in microtitre plates; parameters: 5 μl of radiolabelled SAP in TN; from tissue; details: read-out: Percent inhibition of binding of radiolabelled SAP to immobilized native long chromatin
SAP [2] = molecular target: T1, SAP; experiment: Inhibition of binding of 125I radiolabelled SAP to Neisseria meningitidis immobilized in microtitre plates; parameters: 5 μl of radiolabelled SAP in TN; from tissue; details: read-out: Percent inhibition of binding of radiolabelled SAP to immobilized Neisseria meningitidis
Description: A suspension of heat killed Neisseria meningitidis at 1×10^8 organisms per ml in PBS was dispensed to polystyrene microtitre plates at 50 μl volumes per well, and left overnight at 4° C. All wells were then washed three times with 200 μl volumes of PBS containing 0.05% v/v Tween 20, prior to equilibration for 2 min with 0.01M Tris buffered 0.14M NaCl/0.002M CaCl2 at pH 8.0 (TC buffer), containing 4% w/v BSA and 0.05%/v Tween 20 (TCBT buffer). The wells were then emptied before adding to each one the following reagents. […] For background, non-specific, non calcium dependent, binding in the presence of EDTA: 5 μl radiolabelled SAP in TN and 45 μl 0.01M Tris buffered 0.14M NaCl at pH 8.0 containing 11.1 mM EDTA, 4.4% w/v BSA and 0.06% w/v Tween 20 (TEBT buffer) to provide final concentrations of EDTA, 10 mM; BSA, 4%; Tween 20, 0.05%. […] All wells were then incubated at room temperature for 2 h before being washed three times with 200 μl volumes of TCBT, allowed to dry for 1 h at room temperature, and bound radiolabelled SAP was then counted.
The capacity of the compounds tested to inhibit binding of SAP to meningococci is expressed as the percentage by which SAP binding was reduced compared to binding in the absence of any inhibitor (Table 1).

SAP [3] = molecular target: T1, SAP; experiment: Lead identification: inhibition of ligand binding by SAP (SAP binding to amyloid fibrils, high throughput screening); details: compared with the original hit Ro-15-3479
Description: The compounds tested in the experiment shown here were a family of molecules developed as inhibitors of SAP binding to amyloid fibrils, following identification of an initial lead molecule during high throughput screening of a large compound library according to U.S. Pat. No. 6,126,918. […] A chemistry programme then produced, (R)-1-[6-(R)-2-Carboxy-pyrrolidin-1-yl]-6-oxo-hexanoyl]pyrrolidine-2-carboxylic acid (Ro-63-8695) (Example 8b of EP-A-915088) and a family of related molecules, that were tested here.

SAP [4] = molecular target: T1, SAP; experiment: Inhibition of binding of 125I radiolabelled SAP to influenza virus immobilized in microtitre plates; parameters: 5 μl of radiolabelled SAP in TN; from tissue; details: read-out: Percent inhibition of binding of radiolabelled SAP to immobilized influenza virus
Description: A concentrated suspension of purified influenza virus A/Shanghai/24/90 at 10 mg protein per ml in PBS was diluted 1:50 in PBS and then dispensed to polystyrene microtitre plates at 50 μl volumes per well, and left overnight at 4° C. All wells were then emptied before blocking by addition to each well of 200 μl of 2% w/v BSA in PBS and incubation at room temperature for 1 h. All wells were then washed three times with 200 μl volumes of PBS containing 0.05% v/v Tween 20, prior to equilibration for 2 min with 0.01M Tris buffered 0.14M NaCl/0.002M CaCl2 at pH 8.0 (TC buffer), containing 4% w/v BSA and 0.05% v/v Tween 20 (TCBT buffer). The wells were then emptied before adding to each one the following reagents. […] For background, non-specific, non calcium dependent, binding in the presence of EDTA: 5 μl radiolabelled SAP in TN and 45 μl 0.01M Tris buffered 0.14M NaCl at pH 8.0 containing 11.1 mM EDTA, 4.4% w/v BSA and 0.06% w/v Tween 20 (TEBT buffer) to provide final concentrations of EDTA, 10 mM; BSA, 4%; Tween 20, 0.05%. […] All wells were then incubated at room temperature for 2 h before being washed three times with 200 μl volumes of TCBT, allowed to dry for 1 h at room temperature, and bound radiolabelled SAP was then counted. The compounds tested in the experiment shown here were the same as those specified in Example B above.
The capacity of the compounds tested to inhibit binding of SAP to the immobilised influenza virus is expressed as the percentage by which SAP binding was reduced compared to binding in the absence of any inhibitor (Table 3).

T1 sequence (P02743 20-223): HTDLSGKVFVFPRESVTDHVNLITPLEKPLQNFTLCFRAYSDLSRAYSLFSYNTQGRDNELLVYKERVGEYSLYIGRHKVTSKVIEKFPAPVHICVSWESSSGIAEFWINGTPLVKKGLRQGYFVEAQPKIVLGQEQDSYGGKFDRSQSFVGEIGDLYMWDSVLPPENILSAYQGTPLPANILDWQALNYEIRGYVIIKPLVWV

In the case of `C[C@H](CSSC[C@@H](C)C(=O)N1CCC[C@@H]1C(=O)O)C(=O)N1CCC[C@@H]1C(=O)O` [Ro-63-3300, (R)-1-[(S)-3-[(S)-3-[(R)-2-carboxy-pyrrolidin-1-yl]-2-methyl-3-oxo-propyldisulfanyl]-2-methyl-propionyl]-pyrrolidine-2-carboxylic acid], the inhibition at 0.2 µM (SAP [1]; compound 200 nM) is reported as 3%, the inhibition at 2 µM (SAP [1]; compound 2 μM) is reported as 34% and the inhibition at 20 µM (SAP [1]; compound 20 μM) is reported as 69%. For the same compound, the inhibition at 200 µM (SAP [1]; compound 200 μM) was 88%, the inhibition at 2000 µM (SAP [1]; compound 2 mM) was 99% and the inhibition at 0.2 µM (SAP [2]; compound 200 nM) was 28%. The inhibition at 2 µM (SAP [2]; compound 2 μM) was 68%, the inhibition at 20 µM (SAP [2]; compound 20 μM) was 73% and the inhibition at 2000 µM (SAP [2]; compound 2 mM) was 100%. The “Inhibition of ligand binding by SAP, in words” value (SAP [3]) was “much more potent”, the inhibition at 0.2 µM (SAP [4]; compound 200 nM) was 47% and the inhibition at 2 µM (SAP [4]; compound 2 μM) was 78%. It also gave an inhibition at 20 µM (SAP [4]; compound 20 μM) of 90%, an inhibition at 200 µM (SAP [4]; compound 200 μM) of 91% and an inhibition at 2000 µM (SAP [4]; compound 2 mM) of 91%.
